The text below walks through data of patent publication US7763645B2, “Carvedilol dihydrogen phosphate monohydrate” (Wanbury Limited, priority 2008, dated 2010).

Data set [1] can be described thus: Hydrate stability: drying at 110° C. and re-exposure to 75% relative humidity at 37° C. The class given is physicochemical. The protocol:
The carvedilol dihydrogen phosphate monohydrate prepared by the present processes is dried till constant weight for 4-10 hours at 40-45° C. under vacuum to obtain carvedilol dihydrogen phosphate monohydrate having bound water content in the range of 3.0-4.0% wt/wt; the theoretical moisture content for carvedilol dihydrogen phosphate monohydrate is 3.54% wt/wt. Further, the bound water content was removed by drying the material at 110° C. till the moisture content below 0.5%. The original moisture content was regained after about 10-15 hours when exposed to 75% relative humidity at 37° C. (in air).

Data set [2] can be described thus: Dissolution study of capsule formulation (USP Type 1). The class given is physicochemical. The following applies: 0.1 N hydrochloric acid; for % Dissolved: 100 rpm. Here is the method: The dissolution rate of carvedilol dihydrogen phosphate monohydrate as a capsule formulation was compared with that of carvedilol phosphate hemihydrate similarly prepared.
The samples for the dissolution study were prepared as follows:
Carvedilol phosphate, 25.0 mg, was accurately weighed along with lactose and other fillers. The mix was filled inside a colorless gelatin capsule shell, size #2. Six such capsules were subjected to dissolution studies, each for the monohydrate and hemi-hydrate material.
The intrinsic solubility of the monohydrate form versus the hemihydrate form of carvedilol is done using the general guidelines for characterizing the dissolution rate as per the United States Pharmacopoeia.
The dissolution conditions were:
Medium: 0.1 N hydrochloric acid, 900 ml
Speed of rotations: 100 per minute.
Temp: 37 degree±0.05 degrees.
The percent dissolved: was determined by UV spectrophotometry at a wavelength of 280 nm.

Setting [3] is: 10 min, 25.0 mg capsule, 900 ml, 37 degree.
[4] abbreviates: 20 min, 25.0 mg capsule, 900 ml, 37 degree.
The mark [5] stands for this setting: 30 min, 25.0 mg capsule, 900 ml, 37 degree.
Setting [6] is: 45 min, 25.0 mg capsule, 900 ml, 37 degree.
Where [7] appears, read: 60 min, 25.0 mg capsule, 900 ml, 37 degree.

As to `COc1ccccc1OCCNCC(O)COc1cccc2[nH]c3ccccc3c12.O=P(O)(O)O` (centres unmarked) [Monohydrate form, 1-(9H-carbazol-4-yloxy)-3-[[2-(2-methoxyphenoxy)ethyl]amino]-propan-2-ol], the “Time to regain original moisture content” value in data set [1] (after drying at 110° C. to moisture below 0.5%, exposed to 75% relative humidity at 37° C. (in air)) lay within 10 to 15 h. Besides, in data set [1] (drying at 110° C., then 75% relative humidity at 37° C. (in air)), the “Stability of hydrate form” value was “stable and does not convert into the dihydrate or hemihydrate form”. Further, the “Time to complete dissolution” value in data set [2] (25.0 mg capsule, 900 ml, 37 degree) is at most 90 min. Besides, the “% Dissolved” value was 46.20% in data set [2] (setting [3]); 68.28% in data set [2] (setting [4]); 82.45% in data set [2] (setting [5]); 95.89% in data set [2] (setting [6]); 96.81% in data set [2] (setting [7]); 101.55% in data set [2] (90 min, 25.0 mg capsule, 900 ml, 37 degree). In data set [2] (capsule), the “Rate of dissolution compared with hemihydrate form” value is listed as “faster rate of dissolution than the hemihydrate form”.

Take “Carvedilol Dihydrogen Phosphate Hemihydrate [Hemihydrate form, reference compound]”: the “% Dissolved” value came out at 45.95% in data set [2] (setting [3]); 63.75% in data set [2] (setting [4]); 68.43% in data set [2] (setting [5]); 75.99% in data set [2] (setting [6]); 82.68% in data set [2] (setting [7]); 88.95% in data set [2] (90 min, 25.0 mg capsule, 900 ml, 37 degree, Phosphate Hemihydrate). Besides, the “% Dissolved” value in data set [2] (90 min, 25.0 mg capsule, 900 ml, 37 degree, listed as hemihydrate form, Phosphate Hemihydrate) is listed as “less than 90%”.
